Test results published in the C3SDB collision cross section collection.
Values belong to the compound of their own block, whether it stands above or below them.

Tests used:
[1] = instrument: DT, single field, calibrated with Agilent tune mix (Agilent)
[2] = instrument: DT, single field, calibrated with Agilent tune mix (Agilent); remark: listed apart in the source

Compound: CCCCCCCCCCCCCCCCCCCC(=O)N[C@@H](CO)[C@H](O)CCCCCCCCCCCCCCC [Cer(38:0)]
collision cross section (N2) ([1]; [M+HCOO]-): 265.2 Å² | collision cross section (N2) ([1]; [M+H]+): 267.9 Å²

Compound: CCCCC/C=C\C/C=C\CCCCCCCC(=O)OC[C@@H](O)COP(=O)([O-])OCC[N+](C)(C)C [LPC(18:2)]
collision cross section (N2) ([1]; [M+HCOO]-): 235.2 Å² | collision cross section (N2) ([1]; [M+H]+): 226.8 Å² | collision cross section (N2) ([1]; [M+Na]+): 231.9 Å²

Compound: CCCCCCCCCCCCCCCCC(=O)OC[C@@H](O)COP(=O)(O)OCCN [LPE(17:0)]
collision cross section (N2) ([1]; [M+H]+): 217.1 Å² | collision cross section (N2) ([1]; [M-H]-): 210.1 Å²

Compound: CCCCCCCCCCCCCCCCC(=O)OC[C@@H](O)COP(=O)(O)O[C@H]1C(O)C(O)C(O)[C@@H](O)C1O (stereo partly drawn) [LPI(17:0)]
collision cross section (N2) ([1]; [M-H]-): 232.6 Å²

Compound: CCCCCCCCCCCCCCCC(=O)OC[C@@H](O)COP(=O)(O)OC[C@H](N)C(=O)O [LPS(16:0)]
collision cross section (N2) ([1]; [M-H]-): 216.4 Å²

Compound: CCCCCCCC/C=C\CCCCCCCCCC(=O)OC[C@@H](O)COP(=O)(O)OC[C@H](N)C(=O)O [LPS(20:1)]
collision cross section (N2) ([1]; [M+H]+): 231.8 Å²

Compound: Nc1nc(=O)c2c([nH]1)NCC(CNc1ccc(C(=O)N[C@@H](CCC(=O)O)C(=O)O)cc1)N2 (stereo partly drawn) [Tetrahydrofolate]
collision cross section (N2) ([2]; [M-H]-): 195.36 Å²

Compound: Cc1ncc(C[n+]2csc(CCOP(=O)(O)O)c2C)c(N)n1 [Thiamine monophosphate]
collision cross section (N2) ([2]; [M+H]+): 169.7 Å²

Compound: O=C(O)/C=C/CCCCCCCCC(=O)O [Traumatic Acid]
collision cross section (N2) ([2]; [M+Na]+): 161.9 Å² | collision cross section (N2) ([2]; [M-H]-): 149.85 Å²

Compound: NCCc1c[nH]c2ccccc12 [Tryptamine]
collision cross section (N2) ([2]; [M+H-H2O]+): 125.1 Å² | collision cross section (N2) ([2]; [M-H]-): 131.55 Å²

Compound: NCCc1ccc(O)cc1 [Tyramine]
collision cross section (N2) ([2]; [M-H]-): 129.74 Å²

Compound: COC1=C(OC)C(=O)C(C/C=C(\C)CCC=C(C)C)=C(C)C1=O [Ubiquinone-2]
collision cross section (N2) ([2]; [M+H]+): 174.3 Å²

Compound: O=c1ccn([C@@H]2O[C@H](COP(=O)(O)OP(=O)(O)O)[C@@H](O)[C@H]2O)c(=O)[nH]1 [Uridine 5'-diphosphate]
collision cross section (N2) ([2]; [M+H]+): 176.5 Å²

Compound: O=C(O)[C@H]1O[C@H](OP(=O)(O)OP(=O)(O)OC[C@H]2O[C@@H](n3ccc(=O)[nH]c3=O)[C@H](O)[C@@H]2O)[C@H](O)[C@@H](O)[C@@H]1O [Uridine 5'-diphosphoglucuronic acid]
collision cross section (N2) ([2]; [M+Na-2H]-): 201.6 Å² | collision cross section (N2) ([2]; [M+Na]+): 210.1 Å²

Compound: COc1cc(C(=O)O)ccc1O [Vanillic acid]
collision cross section (N2) ([2]; [M+H]+): 136.2 Å²

Compound: O=c1[nH]c(=O)c2ncn([C@@H]3O[C@H](COP(=O)(O)O)[C@@H](O)[C@H]3O)c2[nH]1 [Xanthylic acid]
collision cross section (N2) ([2]; [M+H]+): 174.7 Å² | collision cross section (N2) ([2]; [M-H]-): 164.74 Å²

Compound: O=P(O)(O)O[C@H]1O[C@H](CO)[C@@H](O)[C@H](O)[C@H]1O [alpha-D-Glucose 1-phosphate]
collision cross section (N2) ([2]; [M+Na]+): 158 Å² | collision cross section (N2) ([2]; [M-H]-): 145.48 Å²

Compound: CC(=O)NC(CCC(N)=O)C(=O)O [alpha-N-Acetyl-L-glutamine]
collision cross section (N2) ([2]; [M+Na]+): 144.2 Å² | collision cross section (N2) ([2]; [M-H]-): 136.83 Å²

Compound: Nc1ccn([C@H]2C[C@H](O)[C@@H](COP(=O)(O)OP(=O)(O)OP(=O)(O)O)O2)c(=O)n1 [dCTP]
collision cross section (N2) ([2]; [M+H]+): 184.9 Å²

Compound: N[C@@H](CCC(=O)N[C@@H](Cc1ccccc1)C(=O)O)C(=O)O [gamma-Glutamylphenylalanine]
collision cross section (N2) ([2]; [M+H]+): 168.2 Å²

Compound: CC(C)[C@H](NC(=O)CC[C@H](N)C(=O)O)C(=O)O [gamma-Glutamylvaline]
collision cross section (N2) ([2]; [M+H]+): 160.1 Å²

Compound: O=C(O)Cc1ccc(O)cc1 [p-Hydroxyphenylacetic acid]
collision cross section (N2) ([2]; [M-H]-): 126.65 Å²

Second part, the compound after the results:

collision cross section (N2) ([1]; [M+HCOO]-): 259 Å² | collision cross section (N2) ([1]; [M+H]+): 262 Å² | collision cross section (N2) ([1]; [M+Na]+): 267.7 Å² | collision cross section (N2) ([1]; [M-H]-): 249 Å²
Compound: CCCCCCCCCCCCCCCCCC(=O)N[C@@H](CO)[C@H](O)CCCCCCCCCCCCCCC [Cer(36:0)]

collision cross section (N2) ([1]; [M+HCOO]-): 258.9 Å² | collision cross section (N2) ([1]; [M+H]+): 263.4 Å² | collision cross section (N2) ([1]; [M+Na]+): 269.8 Å²
Compound: CCCCCCCCCCCCC=CC[C@@H](O)[C@H](CO)NC(=O)CCCCCCCCCCCCCCCCCC [Cer(37:1)]

collision cross section (N2) ([1]; [M+H]+): 262.4 Å² | collision cross section (N2) ([1]; [M+Na]+): 262.1 Å²
Compound: CCCCCCCCCCCCC=CC[C@@H](O)[C@H](CO)NC(=O)CC=CCCCCCCCCCCCCCCCC [Cer(38:2)]

collision cross section (N2) ([1]; [M+H]+): 270.3 Å² | collision cross section (N2) ([1]; [M+Na]+): 271.4 Å² | collision cross section (N2) ([1]; [M-H]-): 259.8 Å²
Compound: CCCCCCCCCCCCC=CC[C@@H](O)[C@H](CO)NC(=O)CC=CCCCCCCCCCCCCCCCCCC [Cer(40:2)]

collision cross section (N2) ([1]; [M+H]+): 282 Å²
Compound: CCCCCCCCCCCCC=CC[C@@H](O)[C@H](CO)NC(=O)CCCCCCCCCCCCCCCCCCCCCCCC [Cer(43:1)]

collision cross section (N2) ([1]; [M+H]+): 283.5 Å²
Compound: CCCCCCCCCCCCC=CC[C@@H](O)[C@H](CO)NC(=O)CC=CCCCCCCCCCCCCCCCCCCCCCC [Cer(44:2)]

collision cross section (N2) ([1]; [M+NH4]+): 271.6 Å²
Compound: CCCCCCCC/C=C\CCCCCCCCCC(=O)O[C@@H](CO)COC(=O)CCCCCCC/C=C\CCCCCCCC [DG(38:2)]

collision cross section (N2) ([1]; [M+NH4]+): 277.7 Å²
Compound: CCCCC/C=C\C/C=C\CCCCCCCCCC(=O)O[C@@H](CO)COC(=O)CCCCCCCCCCCCCCCCCCC [DG(40:2)]

collision cross section (N2) ([1]; [M-H]-): 216.4 Å²
Compound: CCCCC/C=C\C/C=C\CCCCCCCCCC(=O)OC[C@@H](O)COP(=O)(O)OCCN [LPE(20:2)]

collision cross section (N2) ([1]; [M-H]-): 221.5 Å²
Compound: CCCCC/C=C\C/C=C\C/C=C\CCCCCCC(=O)OC[C@@H](O)COP(=O)(O)OC[C@H](N)C(=O)O [LPS(20:3)]

collision cross section (N2) ([1]; [M+H]+): 290.4 Å²
Compound: CCCCC/C=C\C/C=C\C/C=C\C/C=C\CCCCCC(=O)O[C@H](COC(=O)CCCCCCCCCCCCCC)COP(=O)([O-])OCC[N+](C)(C)C [PC(37:4)]

collision cross section (N2) ([1]; [M+H]+): 288.3 Å²
Compound: CCCCCCCCCCCCCCCC/C=C\OC[C@H](COP(=O)([O-])OCC[N+](C)(C)C)OC(=O)CCCCCCCCCCCCCCC [PC(p34:0)]

collision cross section (N2) ([1]; [M+H]+): 300.9 Å²
Compound: CCCCC/C=C\C/C=C\C/C=C\C/C=C\CCCCCC(=O)O[C@H](CO/C=C\CCCCCCCCCCCCCCCC)COP(=O)([O-])OCC[N+](C)(C)C [PC(p40:4)]

collision cross section (N2) ([1]; [M+H]+): 274.6 Å²
Compound: CCCCCCCCCCCCCC/C=C\OC[C@H](COP(=O)(O)OCCN)OC(=O)CCCCCCCCCCCCCCCCC [PE(p34:0)]

collision cross section (N2) ([1]; [M+H]+): 281.6 Å² | collision cross section (N2) ([1]; [M-H]-): 268.4 Å²
Compound: CCCCCCCCCCCCCCCC/C=C\OC[C@H](COP(=O)(O)OCCN)OC(=O)CCCCCCCCCCCCCCCCC [PE(p36:0)]

collision cross section (N2) ([1]; [M+NH4]+): 298.1 Å² | collision cross section (N2) ([1]; [M-H]-): 286.9 Å²
Compound: CCCCCCCC/C=C\CCCCCCCCCC(=O)O[C@H](COC(=O)CCCCCCCCCCCCCC)COP(=O)(O)O[C@H]1C(O)C(O)C(O)[C@@H](O)C1O (stereo partly drawn) [PI(35:1)]

collision cross section (N2) ([1]; [M+NH4]+): 295.6 Å² | collision cross section (N2) ([1]; [M-H]-): 285.3 Å²
Compound: CCCCC/C=C\C/C=C\CCCCCCCCCCCC(=O)O[C@H](COC(=O)CCCCCCCCCCCC)COP(=O)(O)O[C@H]1C(O)C(O)C(O)[C@@H](O)C1O (stereo partly drawn) [PI(35:2)]

collision cross section (N2) ([1]; [M+NH4]+): 301.4 Å² | collision cross section (N2) ([1]; [M+Na]+): 298.9 Å² | collision cross section (N2) ([1]; [M-H]-): 290.1 Å²
Compound: CCCCC/C=C\C/C=C\CCCCCCCCCCCC(=O)O[C@H](COC(=O)CCCCCCC/C=C\CCCCC)COP(=O)(O)O[C@H]1C(O)C(O)C(O)[C@@H](O)C1O (stereo partly drawn) [PI(37:3)]

collision cross section (N2) ([1]; [M+H]+): 298.9 Å² | collision cross section (N2) ([1]; [M+NH4]+): 300.2 Å² | collision cross section (N2) ([1]; [M+Na]+): 297.6 Å²
Compound: CC/C=C\C/C=C\C/C=C\C/C=C\CCCCC(=O)OC[C@H](COP(=O)(O)O[C@H]1C(O)C(O)C(O)[C@@H](O)C1O)OC(=O)CCCCCCCCCCCCCCCCCC (stereo partly drawn) [PI(37:4)]

collision cross section (N2) ([1]; [M-H]-): 296.1 Å²
Compound: CCCCCC/C=C\CCCCCCCC(=O)OC[C@H](COP(=O)(O)O[C@H]1C(O)C(O)C(O)[C@@H](O)C1O)OC(=O)CCCCCCCCCCCCCCCCCCCCC (stereo partly drawn) [PI(38:1)]

collision cross section (N2) ([1]; [M+H]+): 280 Å² | collision cross section (N2) ([1]; [M-H]-): 273.1 Å²
Compound: CCCCCCCC/C=C\CCCCCCCCCC(=O)O[C@H](COC(=O)CCCCCCCCCCCCC)COP(=O)(O)OC[C@H](N)C(=O)O [PS(34:1)]

collision cross section (N2) ([1]; [M+H]+): 279.2 Å²
Compound: CCCCCCCCCCCCC=CC[C@@H](O)[C@H](COP(=O)([O-])OCC[N+](C)(C)C)NC(=O)CCCCCCCCCCCCCC [SM(33:1)]

collision cross section (N2) ([1]; [M+HCOO]-): 282.3 Å² | collision cross section (N2) ([1]; [M+H]+): 285 Å² | collision cross section (N2) ([1]; [M+Na]+): 284.8 Å²
Compound: CCCCCCCCCCCCCCCC(=O)N[C@@H](COP(=O)([O-])OCC[N+](C)(C)C)[C@H](O)CCCCCCCCCCCCCCC [SM(34:0)]

collision cross section (N2) ([1]; [M+H]+): 281.4 Å²
Compound: CCCCCCCCCCCCC=CCC(=O)N[C@@H](COP(=O)([O-])OCC[N+](C)(C)C)[C@H](O)CC=CCCCCCCCCCCCC [SM(34:2)]

collision cross section (N2) ([1]; [M+NH4]+): 324.6 Å²
Compound: CCCCC/C=C\C/C=C\C/C=C\C/C=C\CCCCCC(=O)OC[C@@H](COC(=O)CCCCCCCCCCCCCCC)OC(=O)CCCCCCC/C=C\CCCCCCC [TG(55:5)]

collision cross section (N2) ([1]; [M+NH4]+): 339 Å²
Compound: CCCCC/C=C\C/C=C\C/C=C\CCCCCCC(=O)O[C@H](COC(=O)CCCC/C=C\C/C=C\C/C=C\CCCCC)COC(=O)CCCCCCCCC/C=C\CCCCCCCCCC [TG(60:7)]

collision cross section (N2) ([1]; [M+NH4]+): 336 Å²
Compound: CC/C=C\C/C=C\C/C=C\C/C=C\C/C=C\CCCC(=O)O[C@H](COC(=O)CCCCCCC/C=C\C/C=C\C/C=C\CC)COC(=O)CCCCCCCCC/C=C\CCCCCCCCCC [TG(60:9)]

collision cross section (N2) ([1]; [M+NH4]+): 337.5 Å²
Compound: CC/C=C\C/C=C\C/C=C\C/C=C\C/C=C\C/C=C\CCC(=O)OC[C@@H](COC(=O)CCCCCCC/C=C\C/C=C\C/C=C\CC)OC(=O)CCCCCCCC/C=C\C/C=C\C/C=C\CCCCC [TG(62:12)]
